Measurements from ChEMBL document CHEMBL1139951, “Synthesis and local anesthetic activity of fluoro-substituted imipramine and its analogues” (Bioorg Med Chem Lett, 2007).

Experiments:
[1] = Dissociation constant, pKa by potentiometric titration method; type: physicochemical
Sciatic nerve [2] = assay: Anesthetic activity in toad sciatic nerves assessed as latent period of sciatic nerve block; type: functional, Bufo bufo
Sciatic nerve [3] = assay: Anesthetic activity in toad sciatic nerves assessed as sciatic nerve block activity relative to Lidocaine; type: functional, Bufo bufo; parameters: unit not given here
Sciatic nerve [4] = assay: Anesthetic activity in toad sciatic nerves assessed as sciatic nerve block activity; type: functional, Bufo bufo

SMILES	pKa [1]	Latent period of sciatic nerve block (Sciatic nerve [2]) [min]	Activity (Sciatic nerve [3])	Activity (Sciatic nerve [4]) [%]
CN(C)CCCN1c2cc(F)ccc2CCc2ccc(F)cc21	7.7			
CCN(CC)CCCN1c2cc(F)ccc2CCc2ccc(F)cc21	7.7			
Fc1ccc2c(c1)N(CCCN1CCCCC1)c1cc(F)ccc1CC2	7.6			
Fc1ccc2c(c1)N(CCCN1CCOCC1)c1cc(F)ccc1CC2	7.6			
Fc1ccc2c(c1)N(CCCN1CCCC1)c1cc(F)ccc1CC2	7.9			
Cl.Fc1ccc2c(c1)N(CCCN1CCOCC1)c1cc(F)ccc1CC2		37.3	65.5	0.029
CN(C)CCCN1c2cc(F)ccc2CCc2ccc(F)cc21.Cl		30.7	20.2	0.094
CCN(CC)CC(=O)Nc1c(C)cccc1C.Cl		37.2	100	0.019
CCN(CC)CCCN1c2cc(F)ccc2CCc2ccc(F)cc21.Cl		38.2	105.5	0.018
Cl.Fc1ccc2c(c1)N(CCCN1CCCC1)c1cc(F)ccc1CC2		40.6	27.5	0.069
Cl.Fc1ccc2c(c1)N(CCCN1CCCCC1)c1cc(F)ccc1CC2		39.8	48.7	0.039
